Experimental findings from patent US10426758B2, “Sibiriline derivatives for use for preventing and/or treating disorders associated with cellular necroptosis” (Institut National de la Sante et de la Recherche Medicale …, priority 2015, dated 2019) are described below.

Experiment [1] deals with L929 cells. In words: Anti-necroptotic effect, L929 cells, TNF + zVAD, FACS of propidium iodide-stained nuclei. It counts as cell-based. The method, then:
(§1) L929 cells, L929AsFas cells, Jurkat FADD-deficient cells (Jurkat FADD^−/−), U937 cells are pretreated for 1 h with increased concentrations of Sib (0, 5, 10, 20 μM) and then treated respectively with TNF-α (10 ng/ml)+zVAD (20 μM), FasL (200 ng/ml)+zVAD (20 μM), TNF-α (10 ng/ml), TRAIL (200 ng/ml)+zVAD (30 μM) or TRAIL (200 ng/ml)+zVAD (30 μM)+CHX (1 μg/ml). % of cell death is determined after 24 h and calculated by a FACS analysis of Propidium Iodide-stained nuclei. In each case, the EC50 is determined as well as the % of rescue from cell death.

Experiment [2] has as its system Jurkat FADD-deficient cells (Jurkat FADD−/−). The experiment can be described thus: Anti-necroptotic effect, Jurkat FADD-deficient cells, TNF, FACS of propidium iodide-stained nuclei. The experiment is classed as cell-based, human. The protocol: as §1
Experiment [3] deals with U937 cells. The experiment can be described thus: Anti-necroptotic effect, U937 cells, TRAIL + zVAD + CHX, FACS of propidium iodide-stained nuclei. It counts as cell-based. The protocol:
as §1

Experiment [4] relates to L929 cells. In words: Clonogenic assay (CA). Particulars: 10 μM for 24 hours with TNF-α (10 ng/ml)/z-VAD (20 μM); 15 days of culture. The experiment is classed as cell-based. The protocol: This effect of Sibiriline on necroptosis was verified using clonogenic assay (CA). CA is an in vitro cell survival assay based on the ability of a single cell to grow into a colony.
L929 cells are treated by TNF-α (10 ng/ml)/z-VAD (20 μM) w/or w/o 10 μM Sib for 24 hours. After treatment, cells are seeded out in appropriate dilutions (here 5,000 cells per well) to form colonies in 2 weeks. Colonies are fixed with ice cold methanol and stained with crystal violet.

The target in experiment [5] is T1, Human RIPK1 full length GST-tagged (Homo sapiens, UniProt Q13546).
T1 construct: Human RIPK1 full length GST-tagged; made in house; host or cells: Sf9 insect cells (Bac-to-Bac baculovirus system)
T1 sequence (Q13546 1-671): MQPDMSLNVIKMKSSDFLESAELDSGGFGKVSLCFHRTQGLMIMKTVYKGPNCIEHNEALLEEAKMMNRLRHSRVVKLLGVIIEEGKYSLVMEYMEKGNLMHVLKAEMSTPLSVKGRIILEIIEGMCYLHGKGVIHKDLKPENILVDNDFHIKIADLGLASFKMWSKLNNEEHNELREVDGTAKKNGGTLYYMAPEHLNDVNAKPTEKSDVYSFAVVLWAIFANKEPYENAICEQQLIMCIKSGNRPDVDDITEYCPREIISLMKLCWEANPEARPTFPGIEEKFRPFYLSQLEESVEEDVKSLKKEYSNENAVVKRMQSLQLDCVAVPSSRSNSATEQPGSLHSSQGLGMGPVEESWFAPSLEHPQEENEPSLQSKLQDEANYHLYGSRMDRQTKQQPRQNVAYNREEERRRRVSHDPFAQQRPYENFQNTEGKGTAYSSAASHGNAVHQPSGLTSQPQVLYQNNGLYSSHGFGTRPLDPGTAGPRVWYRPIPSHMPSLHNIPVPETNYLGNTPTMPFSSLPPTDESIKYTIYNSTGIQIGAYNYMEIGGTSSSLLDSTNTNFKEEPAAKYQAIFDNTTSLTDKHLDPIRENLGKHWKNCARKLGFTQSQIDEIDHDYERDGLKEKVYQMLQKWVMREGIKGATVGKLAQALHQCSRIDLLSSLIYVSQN
In words: RIPK1 autophosphorylation assay. The experiment is classed as biochemical. Particulars: radioactively labeled RIPK1, [γ-32P] ATP, 30 minutes at 30° C. The method, then:
Human RIPK1 full length GST-tagged was baculovirally expressed in Sf9 cells according to manufacturer's instructions (Bac-to-Bac expression system, Invitrogen) and purified using gluthation-sepharose beads (GE Healthcare). The elution was made in 50 mM Tris-HCl, pH 8.0 buffer supplemented with 30 mM reduced gluthatione (Sigma). The protocol used to detect the enzymatic activity is adapted from Miao and Degterev (Methods Mol. Biol. 2009, 559, 79-93). Kinase reaction was initiated mixing 5 μl of eluted RIPK1, 5 μl of 3× kinase reaction buffer (5 mM MOPS pH 7.2, 2.5 mM β-glycerophosphate, 4 mM MgCl2, 2.5 mM MnCl2, 1 mM EGTA, 0.4 mM EDTA, 50 μg/ml BSA, 0.05 mM DTT), 2 μl H2O and 3 μl of the tested molecule. The mixture was kept on ice for 10 minutes. During the incubation, the ATP solution was prepared by mixing 5 μl of 3× kinase reaction buffer, 4 μl H2O, 6 μl cold ATP at 150 μM and 2 μCi of [γ-^32P] ATP. Add the ATP solution and the tested inhibitor to the kinase and incubate for 30 minutes at 30° C. To stop the enzymatic reaction, 5 μl of loading buffer were added and solution was heated for 3 minutes at 95° C. 25 μl of each reaction were loaded per well in pre-cast NuPage 12% Bis-Tris gel (Life Technology). Autophosphorylated RIPK1 band was visualized on radiographic film after 6 h exposition at −80° C.

Experiment [6] deals with ABL1(H396P)-nonphosphorylated (Homo sapiens, UniProt P00519, H396P). In words: Competition binding assay for kinase targets of Sib (456 kinases). Particulars: remaining kinase on the matrix after competition, read-out: Percent Control (%). The method, then:
(§2) The assay is performed by combining three components: DNA-tagged kinase (a total of 456 kinases were tested); immobilized ligand; and a test compound (here Sib). The ability of Sib to compete with the immobilized ligand is measured via quantitative PCR of the DNA tag.

Experiment [7] addresses T2, JAK2 (JH1domain-catalytic) (Homo sapiens, UniProt O60674).
T2 construct: JAK2(JH1domain-catalytic)
Described as above. Particulars: remaining kinase on the matrix after competition, read-out: Percent Control (%). The method, then: as §2

Experiment [8] concerns the target KIT(V559D) (Homo sapiens, UniProt P10721, V559D). The experiment is described as above. As to conditions: remaining kinase on the matrix after competition, read-out: Percent Control (%). The protocol: as §2

The structures appear in SMILES notation.

T2 sequence (O60674 849-1124 limits assumed): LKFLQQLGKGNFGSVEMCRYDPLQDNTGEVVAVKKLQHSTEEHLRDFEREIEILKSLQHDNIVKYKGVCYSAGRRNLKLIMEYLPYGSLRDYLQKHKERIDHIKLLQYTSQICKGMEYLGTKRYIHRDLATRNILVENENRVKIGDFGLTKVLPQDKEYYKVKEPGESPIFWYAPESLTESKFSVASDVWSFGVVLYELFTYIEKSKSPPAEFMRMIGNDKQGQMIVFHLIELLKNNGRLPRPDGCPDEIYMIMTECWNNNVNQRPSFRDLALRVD
Chain of KIT(V559D) (P10721 26-976 V559D): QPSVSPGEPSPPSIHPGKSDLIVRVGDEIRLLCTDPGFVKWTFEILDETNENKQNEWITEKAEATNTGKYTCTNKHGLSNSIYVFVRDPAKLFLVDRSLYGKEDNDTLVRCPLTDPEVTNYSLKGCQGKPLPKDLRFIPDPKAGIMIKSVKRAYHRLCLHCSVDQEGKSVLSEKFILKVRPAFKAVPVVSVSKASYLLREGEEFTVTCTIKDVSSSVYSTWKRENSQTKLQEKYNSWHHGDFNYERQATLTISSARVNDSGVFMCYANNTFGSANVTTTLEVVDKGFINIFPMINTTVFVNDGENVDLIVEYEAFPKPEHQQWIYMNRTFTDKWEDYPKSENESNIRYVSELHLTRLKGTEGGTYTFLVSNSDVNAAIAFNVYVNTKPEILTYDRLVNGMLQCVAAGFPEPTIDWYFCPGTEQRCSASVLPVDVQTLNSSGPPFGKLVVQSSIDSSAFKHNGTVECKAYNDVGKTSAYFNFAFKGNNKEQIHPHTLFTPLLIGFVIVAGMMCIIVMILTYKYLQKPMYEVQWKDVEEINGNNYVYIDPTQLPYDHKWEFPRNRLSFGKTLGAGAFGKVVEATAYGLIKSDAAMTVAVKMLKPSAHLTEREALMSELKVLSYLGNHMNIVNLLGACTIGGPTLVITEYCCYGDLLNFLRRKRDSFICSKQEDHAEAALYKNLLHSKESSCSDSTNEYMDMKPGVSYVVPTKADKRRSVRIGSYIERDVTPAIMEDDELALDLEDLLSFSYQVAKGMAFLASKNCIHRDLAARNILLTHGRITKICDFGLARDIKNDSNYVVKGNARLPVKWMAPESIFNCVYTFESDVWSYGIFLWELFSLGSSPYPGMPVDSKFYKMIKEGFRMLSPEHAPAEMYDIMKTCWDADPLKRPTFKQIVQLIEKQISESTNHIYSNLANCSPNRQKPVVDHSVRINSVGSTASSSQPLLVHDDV

Consider `Oc1ccc(-c2cc3cccnc3[nH]2)cc1` [compound 2, 4-(1H-pyrrolo[2,3-b]pyridin-2-yl)phenol], for which the EC50 in experiment [1] (Mus musculus, 1 h pretreatment, cell death after 24 h) was 3 µM; in experiment [2] (Homo sapiens, 1 h pretreatment, cell death after 24 h), 1.2 µM; in experiment [3] (Homo sapiens, U-937, 1 h pretreatment, cell death after 24 h), 20 µM. Also, the “% Rescue” value in experiment [1] (rescue from cell death, 24 h) worked out at 80%; in experiment [2] (rescue from cell death, 24 h) it was 90%; in experiment [3] (rescue from cell death, 24 h), 50%. Besides, the “cell colonies (cellular growth) after treatment” value in experiment [4] is “can restore the cellular growth and protect cells from death”. Besides, the “inhibition of RIPK1 autophosphorylation” value in experiment [5] is “dose-dependent inhibition”; in experiment [5] (listed as Sib), “inhibit the RIPK1 autophosphorylation”. Moreover, the remaining binding at 10 µM in experiment [6] was found to be 1%; in experiment [7], 0.2%; in experiment [8], 0.4%.

By EC50 is commonly meant the concentration needed to bring the measured effect to its halfway point.
